# Measurements taken from patent US20230285570A1, “THERAPEUTICALLY USEFUL CURE-PRO MOLECULES FOR E3 LIGASE MEDIATED DEGRADATION OF PROTEINS, AND METHODS OF MAKING AND USING THEM” (CORNELL UNIVERSITY, priority 2020, published 2023).
# “Also recorded” adds a separate entry of the source.
# Legend:
# Format in all cases: cell-based
# [1] = target: T1, BRD4 (Homo sapiens, UniProt O60885); assay: CURE-PRO-mediated BRD4 degradation in MCF7 cells, WES (ProteinSimple); parameters: endogenous in cells
# Method: (§1) WES Simple analysis was performed on WES system (ProteinSimple-Biotechne) according to the manufacturer's instructions. Total protein concentrations of cell lysates were determined by the Pierce BCA kit (Thermo Fisher). 3 μL of 0.3 μg/μL of the protein lysate was loaded onto a 12- to 230-kDa WES assay plate (ProteinSimple) where 300 nL sample was withdrawn through a capillary, subjected to electrophoretic separation of proteins by size, and followed by the simultaneous, HRP-based detection of proteins using the Anti-Rabbit Detection Module (Proteinsimple: #DM-001). The electropherograms were checked then the automatic peak detection was manually corrected if it was required.
# MCF7 cells (3×10^6) were treated for 4-24 hours continually (FIG. 72), or treated for 4 h, washed and incubated for a further 4-24 h with the compounds solubilized in DMSO. Compounds were added at 10 μM each. Cells were washed, lysed, and clarified by centrifugation. The total protein concentration was quantified by the BCA method (ThermoFisher Sciences). Standardized protein samples were electrophoresed and imaged as described in the WES Proteinsimple section above. FIG. 69 depicts the CURE-PRO-mediated BRD4 degradation for the BRD-E50 monomer, and VHL ligand, 8305.
# MCF7 cells (3×10^6) were treated for 24 hours with the compounds solubilized in DMSO. CURE-PRO monomers were added at 10 μM each and the proteasomal inhibitors at 1 μM. Standardized protein samples were electrophoresed and imaged as described in the WES Proteinsimple section above. FIGS. 73 and 75 depicts the dependence of the proteasome for CURE-PRO-mediated BRD4 degradation.
# MCF7 cells (3×10^6) were treated for 24 hours with the compounds solubilized in DMSO. CURE-PRO monomers were added at 10 μM. FIG. 74 depicts the CURE-PRO-mediated BRD4 degradation for the BRD-E50 monomer, and VHL ligand, 8305 combined in a 1:1 ratio after 24 h.
# [2] = target: T1, BRD4; assay: Summary of BRD4 degradation by CURE-PRO pairs, estimated from Western Blot or WES; parameters: endogenous in cells
# How it was run: (§2)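 Degradation read-out from immunoblot with ECL, or WES capillary electrophoresis with HRP detection, of RIPA lysates. Cells (Namalwa, Ramos, HeLa, MCF7, HT29 or HCT116) were exposed to DMSO-solubilized compounds for 24 h; a check mark marks 30% to 70% or higher degradation.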
# [3] = target: T1, BRD4; assay: CURE-PRO-mediated BRD4 degradation in HeLa cells, WES capillary electrophoresis (ProteinSimple); parameters: endogenous in cells; host or cells: HeLa; conditions: co-dosed with CRBN ligand 8047, HeLa, 24 h, 100 nM-10 μM each
# Method: All cell lines were purchased from ATCC or DSMZ and grown at 37° C. with 5% CO2. Human HeLa cells were cultured in complete growth medium (Dulbecco's modified Eagle's medium (DMEM) supplemented with 10% FBS); MCF7 cells were cultured in complete growth medium (Dulbecco's modified Eagle's medium (DMEM) supplemented with 10% FBS and 0.01 mg/ml human recombinant insulin (Sigma Aldrich); Namalwa and Ramos cells were cultured in complete growth medium (RPMI 1640 medium supplemented with 10% FBS); HCT116 and HT29 cells were cultured in complete growth medium (McCoy's 5a Medium supplemented with 10% FBS). For cellular degradation of BRD4 studies cells were seeded in a 12-well plate at 70-80% confluency, allowed to attach overnight, and incubated with the indicated compounds for the indicated time. When indicated, a 15-minute pretreatment with 10 μM pomalidomide, 10 μM VHL298, 10 μM Nutlin3a, 1 μM MG-132 or 1 μM Carfilzomib was performed before the addition of CURE-PROs. For washout studies, after CURE-PRO treatment, media was aspirated and incubated with complete medium for the indicated time before lysis.
# as §1
# HeLa cells (2.5×10^6) were treated for 4-24 hours with the compounds solubilized in DMSO. After 4 hours, indicated points were washed and cells were left in full growth media. Compounds were added at 10 μM each. Standardized protein samples were electrophoresed and imaged as described in the WES ProteinSimple section above. FIGS. 44 and 45 depict the time-dependence of CURE-PRO-mediated BRD4 degradation with the BRD-E52 ligand (FIG. 44) and BRD-E72 ligand (FIG. 45), both JQ1 derivatives comprising of boronic acid linkers, and the CRBN binding ligands (8046, 8047, and 8066), pomalidomide derivatives comprising diol linkers.
# HeLa cells (2.5×10^6) were treated for 24 hours with the compounds solubilized in DMSO. Compounds were added at 100 nM-10 μM each. Standardized protein samples were electrophoresed and imaged as described in the WES ProteinSimple section above. FIG. 46 depicts the concentration-dependence of CURE-PRO-mediated BRD4 degradation and the requirement for monomer dimerization.
# [4] = test system: MV-4-11 cells; assay: CellTiter-Glo cell viability, MV-4-11 cells
# Method: CellTiter-Glo® 2.0 Cell Viability Assay (Promega) was carried out following the manufacturer's recommendations. Cells were seeded at a density of 1000 cells/well in a white 96 well plates (Corning, #3917) in a total volume of 100 μl with respective monomers, combinations of BRD ligands together with E3 ligase ligands or vehicle control treatment. After a 72 h incubation, 100 ul of the CellTiter-Glo® substrate was added per well and luminescence was read on a Spectramax M5 (Molecular Devices). Dose-response curves were generated using Graphpad Prism software.
# MV-4-11 cells (5×10^4) were treated for 24 hours with the sample compounds solubilized in DMSO. The compounds were added at 1 nM-100 μM each. Cellular viability was determined using the CellTiter-Glo® Luminescent Cell Viability Assay (Promega) described above. FIGS. 19-22 depict the CURE-PRO-mediated loss of cellular viability for BRD monomers (JQ1 derivatives comprising of catechol linkers), and CRBN ligand, 8049 (pomalidomide derivatives comprising boronic acid linkers) combined in a 1:1 ratio.
# MV-4-11 cells (1×10^4) were treated for 72 hours with the compounds solubilized in DMSO. Compounds were added at 10 nM-100 μM each. Cellular viability was determined using the CellTiter-Glo® Luminescent Cell Viability Assay (Promega) described above. FIGS. 47-54 depict the CURE-PRO-mediated loss of cellular viability for BRD monomers (JQ1 derivatives comprising of boronic acid linkers), and CRBN ligands, 8046, 8047 and 8066 (pomalidomide derivatives comprising diol linkers) combined in a 1:1 ratio.
# [5] = target: T1, BRD4; assay: CURE-PRO-mediated BRD4 degradation in HeLa cells, Western blot; parameters: endogenous in cells; host or cells: HeLa; conditions: 24 h
# How it was run: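 HeLa cells (2.5×10^6) treated 24 h with DMSO-solubilized compounds, degrader pairs combined 1:1, at 1 nM-1 μM, 1-10 μM, 10 μM or 10 and 100 μM each depending on series. RIPA lysates (10-20 μg protein) run on SDS-PAGE and immunoblotted for BRD4 with ECL detection.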
# [6] = target: T2, c-MYC (Homo sapiens, UniProt P01106); assay: CURE-PRO-mediated c-MYC degradation in MCF7 cells, WES (ProteinSimple); parameters: endogenous in cells
# T2 sequence (P01106 whole entry): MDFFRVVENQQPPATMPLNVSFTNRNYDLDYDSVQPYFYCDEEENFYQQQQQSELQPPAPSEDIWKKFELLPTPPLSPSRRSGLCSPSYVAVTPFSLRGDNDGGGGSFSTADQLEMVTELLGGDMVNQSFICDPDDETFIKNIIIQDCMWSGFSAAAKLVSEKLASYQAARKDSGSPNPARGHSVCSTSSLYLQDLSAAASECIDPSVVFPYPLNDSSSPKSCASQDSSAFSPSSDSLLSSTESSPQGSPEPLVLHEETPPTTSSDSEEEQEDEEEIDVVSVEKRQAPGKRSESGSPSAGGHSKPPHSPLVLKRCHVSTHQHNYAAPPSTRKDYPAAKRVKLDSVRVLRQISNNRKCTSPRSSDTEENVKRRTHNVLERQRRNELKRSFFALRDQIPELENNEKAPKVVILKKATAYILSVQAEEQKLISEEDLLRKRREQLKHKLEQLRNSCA
# Method: as §1
# Compounds were added at 1 μM-10 μM each. Standardized protein samples were electrophoresed and imaged as detected on a WES capillary electrophoresis instrument (Proteinsimple), as described above. c-MYC monomers, MYC-N5 (FIG. 94) and MYC-N2 (FIG. 95) (10058-F4 derivatives comprising diol linkers), and VHL ligands, 8297 and 8298 (VH-298 derivatives comprising boronic acid linkers) were combined in a 1:1 ratio.
# [7] = target: T2, c-MYC; assay: Summary of C-MYC degradation by CURE-PRO pairs, estimated from Western Blot or WES; parameters: endogenous in cells; host or cells: HT29
# How it was run: as §2
# [8] = 1:1 with VHL ligand 8297, MCF7, 24 h, 1 μM-10 μM each
# [9] = 1:1 with VHL ligand 8298, MCF7, 24 h, 1 μM-10 μM each
# [10] = c-MYC monomer alone, MCF7, 24 h, 1 μM-10 μM
smiles,measurement,setting,value
COc1ccc2c(c1)C(c1ccc(Cl)cc1)=N[C@@H](CC(=O)NCCNC(=O)c1cccc(B(O)O)c1)c1nnc(C)n1-2 [BRD-E2],BRD4 degradation with proteasome inhibitors,"[1]; 1:1 with 8305 at 10 μM, pre-incubation with MG-132 and Carfilzomib 1 μM, MCF7","inhibited by the pre-incubation with MG-132 and Carfilzomib; also recorded: inhibited with the proteasome inhibitors, MG-132 and Carfilzomib"
same,BRD4 degradation,"[1]; 1:1 with VHL ligand 8305, MCF7, 10 μM each, 4-24 h",caused BRD4 degradation; also recorded: marked BRD4 degradation
same,"Degradation of BRD4, combination with VHL ligand 8305","[2]; Table 3, aryl-boronic acid BRD4 ligand + 8305",√ (A black check mark indicates efficacy of 30% to 70% or higher protein degradation)
"CCNC(=O)C[C@@H]1N=C(c2ccc(Sc3ccccc3)cc2)c2cc(OC)ccc2-n2c(C)nnc21 [BRD-E52C, N-ethyl-2-((4S)-8-methoxy-1-methyl-6-(4-(phenylthio)phenyl)-4H-benzo[f][1,2,4]triazolo[4,3-a][1,4]diazepin-4-yl)acetamide]",concentration-dependent BRD4 degradation,[3],failed to induce degradation even at 10 μM
CCNC(=O)C[C@@H]1N=C(c2ccc(Cl)cc2)c2cc(Sc3cccc(B(O)O)c3)ccc2-n2c(C)nnc21 [BRD-E76],loss of cellular viability (toxicity) versus monomers alone,"[4]; cotreated 1:1 with each of CRBN ligands 8046, 8047 and 8066, MV-4-11, 72 h, 10 nM-100 μM",reduced viability; also recorded: increased toxicity
same,"Degradation of BRD4, combination with CRBN ligand 8046","[2]; Table 1, aryl-boronic acid BRD4 ligand + 8046",√ (A black check mark indicates efficacy of 30% to 70% or higher protein degradation)
same,BRD4 degradation,"[5]; co-treated 1:1 with CRBN ligand 8046, HeLa, 10 μM each",causes degradation of BRD4
same,BRD4 degradation,"[5]; co-treated 1:1 with CRBN ligand 8047, HeLa, 10 μM each",causes degradation of BRD4
"COc1ccc2c(c1)C(c1ccc(Cl)cc1)=N[C@@H](CC(=O)NCCc1ccc(O)c(O)c1)c1nnc(C)n1-2 [BRD-N10, (S)-2-(6-(4-chlorophenyl)-8-methoxy-1-methyl-4H-benzo[f][1,2,4]triazolo[4,3-a][1,4]diazepin-4-yl)-N-(3,4-dihydroxyphenethyl)acetamide]",loss of cellular viability (toxicity),"[4]; co-dosed 1:1 with CRBN ligand 8049, MV-4-11, 24 h, 1 nM-100 μM each",concentration-dependent loss in cellular viability; also recorded: increased toxicity
same,"Degradation of BRD4, combination with CRBN ligand 8048","[2]; Table 4, aromatic 1,2-diol BRD4 ligand + 8048",√ (A black check mark indicates efficacy of 30% to 70% or higher protein degradation)
same,"Degradation of BRD4, combination with CRBN ligand 8049","[2]; Table 4, aromatic 1,2-diol BRD4 ligand + 8049",√ (A black check mark indicates efficacy of 30% to 70% or higher protein degradation)
same,"Degradation of BRD4, combination with MDM2 ligand 8310","[2]; Table 5, aromatic 1,2-diol BRD4 ligand + 8310",√ (A black check mark indicates efficacy of 30% to 70% or higher protein degradation)
same,BRD4 degradation,"[5]; BRD4 monomer alone, HeLa, 1-10 μM",there is no degradation of BRD4
same,BRD4 degradation,"[5]; co-treated 1:1 with CRBN ligand 8048, HeLa, 1-10 μM each",causes degradation of BRD4; also recorded: capable of degrading BRD4
CCc1ccc(/C=C2\SC(=O)N(Cc3cccc(O)c3O)C2=O)cc1 [MYC-N2],c-MYC degradation,[6]; [8],Degradation is observed; also recorded: caused degradation of c-MYC
same,c-MYC degradation,[6]; [9],no loss of c-MYC protein was observed
same,c-MYC degradation,[6]; [10],no loss of c-MYC protein was observed
same,"Degradation of C-MYC, combination with CRBN ligand 8048","[7]; Table 10, aromatic 1,2-diol MYC ligand + 8048",√ (A black check mark indicates efficacy of 30% to 70% or higher protein degradation)
CCc1ccc(/C=C2\SC(=O)N(CCCc3ccc(O)c(O)c3)C2=O)cc1 [MYC-N5],c-MYC degradation,[6]; [8],no loss of c-MYC protein was observed
same,c-MYC degradation,[6]; [9],Degradation is observed; also recorded: caused degradation of c-MYC
same,c-MYC degradation,[6]; [10],no loss of c-MYC protein was observed
same,"Degradation of C-MYC, combination with CRBN ligand 8049","[7]; Table 10, aromatic 1,2-diol MYC ligand + 8049",√ (A black check mark indicates efficacy of 30% to 70% or higher protein degradation)
